Assay results: ChEMBL document CHEMBL1134135, “Nitrobenzene compounds inhibit expression of VCAM-1” (Bioorg Med Chem Lett, 2001); call rule not given here

Molecular target: T1, Vascular cell adhesion protein 1 (Homo sapiens, UniProt P19320)
T1 sequence (P19320 whole entry): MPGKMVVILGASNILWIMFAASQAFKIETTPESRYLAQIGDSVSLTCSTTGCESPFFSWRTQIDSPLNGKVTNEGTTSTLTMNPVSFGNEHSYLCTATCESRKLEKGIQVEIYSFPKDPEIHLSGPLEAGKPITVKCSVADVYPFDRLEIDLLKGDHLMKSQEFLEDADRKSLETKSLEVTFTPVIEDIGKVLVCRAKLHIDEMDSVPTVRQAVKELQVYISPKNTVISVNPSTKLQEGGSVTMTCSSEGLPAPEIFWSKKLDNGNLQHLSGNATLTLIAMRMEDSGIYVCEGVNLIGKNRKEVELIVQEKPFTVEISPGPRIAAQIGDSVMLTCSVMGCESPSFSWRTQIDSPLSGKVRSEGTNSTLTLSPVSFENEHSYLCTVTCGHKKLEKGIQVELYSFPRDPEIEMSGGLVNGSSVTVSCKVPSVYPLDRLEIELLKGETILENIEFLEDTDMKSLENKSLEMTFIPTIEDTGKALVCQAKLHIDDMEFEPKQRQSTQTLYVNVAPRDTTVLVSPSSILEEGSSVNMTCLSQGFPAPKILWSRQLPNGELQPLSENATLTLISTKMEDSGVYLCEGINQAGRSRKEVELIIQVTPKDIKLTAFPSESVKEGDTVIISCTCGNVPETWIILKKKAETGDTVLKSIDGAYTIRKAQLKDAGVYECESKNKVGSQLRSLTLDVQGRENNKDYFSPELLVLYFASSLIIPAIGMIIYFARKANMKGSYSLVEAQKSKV
Assay: Ability to inhibit expression of Vascular cell adhesion molecule 1; No effect

SMILES	IC50
N#Cc1cc(Cl)cc(Cl)c1	Not Active
O=[N+]([O-])c1ccccc1Cl	Not Active

The remaining lines, values ahead:

IC50	SMILES
Not Active	O=C(O)C1CCN(S(=O)(=O)c2ccc(Cl)c([N+](=O)[O-])c2)CC1
Not Active	CCN(CC)S(=O)(=O)c1cccc([N+](=O)[O-])c1
Not Active	CCN(CC)S(=O)(=O)c1ccc(Cl)cc1
Not Active	CCN(CC)c1ccc(S(=O)(=O)N(CC)CC)cc1[N+](=O)[O-]
